Experimental data taken from PMC2859821 (Molecular pharmaceutics, 2009).

Legend:
[1] = test system: HeLa cell surface
[2] = statement in abstract; no data in this paper; cited from earlier work
[3] = test system: three types of cells; settings: cited from earlier work
[4] = test system: HeLa cells; settings: 100 nM nocodazole 16 h, 10 μM, 40 min; in contrast to interphase cells

## 5(6)-Carboxyfluorescein-R.I.-CKTat9 [Flu-R.I.-CKTat9]
[1]
  cell surface-bound amount at 0 °C in KPBS versus PBS: no difference

## Acetyl-dC-dK-dR-dR-dR-dQ-dR-dR-dK-dK-dR-CONH2 [R.I.-CKTat9]
[2]
  proteolytic stability: proteolytically stable

## polyarginine
[3]
  reduction of cell-associated fluorescence by high potassium buffer: more than 90%

## rhodamine-R.I.-CKTat9 [Rho-R.I.-CKTat9]
[4]
  uptake by HeLa cells arrested in M phase (microscopy): did not take up
